# “Also recorded” adds a separate entry of the source.
# Test system: patient's amount of pain
# Assay: Potential patient responses to combinatorial therapy: amount of pain over time (FIGS. 5A-5C)
# Assay type: in vivo, patients
# Conditions: combinatorial therapeutic system with VRNT; potential individual patient responses
# Source text: FIGS. 5A-5C illustrate exemplary graphs of potential effects of combinatorial therapeutic systems/methods employing oliceridine and VRNT on a patient's amount of pain over time; and
# The synergistic effects of the disclosed combinatorial therapeutic systems/methods can be exemplified in a plurality of responses. For example, FIGS. 5A-5C illustrate a combinatorial therapy using oliceridine (as the systemic, centrally and peripherally acting analgesic) and VRNT (as the artificial sensory experience) with different potential patient responses. As many, if not all, patients may experience the synergistic benefits afforded by the disclosed combinatorial therapeutic systems/methods as an average benefit, the individual-specific responses may be different.
smiles,measurement,value
COc1ccsc1CNCC[C@@]1(c2ccccn2)CCOC2(CCCC2)C1 [oliceridine],patient's amount of pain over time,constant or linear decrease in pain over time; also recorded: cyclical decrease and increase in pain levels over time with an overall decreasing pain level; also recorded: stepwise reduction in pain levels

# Reference: US20230310399A1, “COMBINATORIAL THERAPEUTIC SYSTEMS AND METHODS THAT INCLUDE SYSTEMIC, CENTRALLY AND PERIPHERALLY ACTING ANALGESICS” (COGNIFISENSE, INC., priority 2020, published 2023)
